In US10351522B2, “Sulfonamide derivative and pharmaceutically acceptable acid addition salt thereof” (UNIVERSITY OF TSUKUBA, priority 2015, dated 2019):
Read-outs that look alike come from different tables or passages of the source.

Key:
human OX2R = biological target: T1, human OX2R (Homo sapiens, UniProt O43614); assay: Agonist activity against OX2R: intracellular calcium (Fura-2AM, FDSS7000) in CHOOX2R cells; assay type: cell-based; settings: relative to orexin-A as full agonist (100%)
T1 construct: expressed in transfected cells; host or cells: CHO (Chinese hamster ovary) cells, line CHOOX2R, co-expressing NFAT-luciferase
T1 sequence (O43614 1-444): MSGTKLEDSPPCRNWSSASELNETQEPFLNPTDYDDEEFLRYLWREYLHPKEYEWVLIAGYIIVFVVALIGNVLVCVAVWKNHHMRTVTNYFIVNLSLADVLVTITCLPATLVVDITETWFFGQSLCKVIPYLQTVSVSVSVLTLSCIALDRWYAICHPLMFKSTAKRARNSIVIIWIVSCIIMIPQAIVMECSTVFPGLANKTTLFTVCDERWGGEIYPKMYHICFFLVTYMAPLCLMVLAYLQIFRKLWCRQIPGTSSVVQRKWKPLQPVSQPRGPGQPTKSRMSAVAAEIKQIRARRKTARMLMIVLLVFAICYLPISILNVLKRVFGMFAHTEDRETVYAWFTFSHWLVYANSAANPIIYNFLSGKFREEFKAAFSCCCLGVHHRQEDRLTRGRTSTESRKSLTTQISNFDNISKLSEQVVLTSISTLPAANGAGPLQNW
How it was run: (§1)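 CHO cells stably expressing human OX1R or OX2R (plus NFAT-luciferase) were loaded with 5 μM Fura-2AM for 60 min, then given compound at 10^−7 to 10^−5 M final (1% DMSO). Calcium change read as 340/380 nm excitation fluorescence ratio; response expressed as % of orexin-A maximal activity at 10, 1.0 and 0.1 μM.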

human OX1R = biological target: T2, human OX1R (Homo sapiens, UniProt O43613); assay: Agonist activity against OX1R: intracellular calcium (Fura-2AM, FDSS7000) in CHOOX1R cells; assay type: cell-based; settings: for Emax at 0.1 µM / Emax at 1 µM / Emax at 10 µM: read-out: Response (%) OX1R
T2 construct: expressed in transfected cells; host or cells: CHO (Chinese hamster ovary) cells, line CHOOX1R, co-expressing NFAT-luciferase
T2 sequence (O43613 1-425): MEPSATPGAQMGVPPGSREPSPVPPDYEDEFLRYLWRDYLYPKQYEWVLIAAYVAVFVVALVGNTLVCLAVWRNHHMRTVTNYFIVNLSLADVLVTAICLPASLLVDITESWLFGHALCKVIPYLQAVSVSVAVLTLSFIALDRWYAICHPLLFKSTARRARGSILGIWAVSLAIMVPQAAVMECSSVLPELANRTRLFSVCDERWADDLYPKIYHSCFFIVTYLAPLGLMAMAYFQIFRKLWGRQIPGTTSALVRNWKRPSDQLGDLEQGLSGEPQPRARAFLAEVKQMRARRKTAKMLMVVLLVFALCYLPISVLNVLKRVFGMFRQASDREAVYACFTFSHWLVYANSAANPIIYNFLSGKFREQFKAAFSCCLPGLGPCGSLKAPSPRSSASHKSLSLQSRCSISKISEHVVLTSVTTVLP
How it was run: as §1

[1] = test compound 0.1 μM, relative to orexin-A as full agonist (100%)
[2] = test compound 1.0 μM, relative to orexin-A as full agonist (100%)
[3] = test compound 10 μM, relative to orexin-A as full agonist (100%)
[4] = 0.1 μM test compound, relative to orexin-A as full agonist (100%)
[5] = 1.0 μM test compound, relative to orexin-A as full agonist (100%)
[6] = 10 μM test compound, relative to orexin-A as full agonist (100%)

Compound | Response (%) OX2R (human OX2R; test compound 0.1 μM) [%] | Response (%) OX2R (human OX2R; test compound 1.0 μM) [%] | Response (%) OX2R (human OX2R; test compound 10 μM) [%] | Response (%) OX2R (human OX2R; 0.1 μM test compound) [%] | Response (%) OX2R (human OX2R; 1.0 μM test compound) [%] | Response (%) OX2R (human OX2R; 10 μM test compound) [%] | Response (%) OX1R (human OX1R; [4]) [%] | Response (%) OX1R (human OX1R; [5]) [%] | Response (%) OX1R (human OX1R; [6]) [%] | further results
COc1ccc(-c2cccc(C(=O)N(C)C)c2)cc1S(=O)(=O)Nc1cccc(N(C)C(=O)Nc2cccc(N(C)C)c2)c1 [Example 125, 3′-(N-(3-(3-(3-(dimethylamino)phenyl)-1-methylureido)phenyl)sulfamoyl)-4′-methoxy-N,N-dimethyl-[1,1′-biphenyl]-3-carboxamide] | 42 | 78 | 79 |  |  |  |  |  |  | Emax at 0.1 µM (human OX1R): < 5%; Emax at 1 µM (human OX1R): < 5%; Emax at 10 µM (human OX1R): < 5%
COc1ccc(-c2cccc(C(=O)N(C)C)c2)cc1S(=O)(=O)Nc1cccc(N(CCNC(=O)OC(C)(C)C)Cc2ccccc2)c1 [Example 91, tert-butyl (2-((benzyl)(3-(3′-(dimethylcarbamoyl)-4-methoxy-[1,1′-biphenyl]-3-ylsulfonamido)phenyl)amino)ethyl)carbamate] | <5 | <5 | 35 |  |  |  |  |  |  | Emax at 0.1 µM (human OX1R; [1]): < 5%; Emax at 1 µM (human OX1R; [2]): < 5%; Emax at 10 µM (human OX1R; [3]): < 5%
COc1ccc(-c2cccc(C(=O)N(C)C)c2)cc1S(=O)(=O)Nc1cccc(NC(=O)c2ccc(N(C)C)cc2)c1 [Example 8] |  |  |  | 8 | 13 | 61 | 9 | 8 | 27 | 
COc1ccc(C(=O)NCC(C)(C)CN(C)C)cc1S(=O)(=O)Nc1cccc(NC(=O)Nc2cccc(N(C)C)c2)c1 [Example 107] | 7 | 9 | 80 |  |  |  |  |  |  | Response (%) OX1R (human OX1R; [1]): <5%; Response (%) OX1R (human OX1R; [2]): <5%; Response (%) OX1R (human OX1R; [3]): <5%
CN(C)C(=O)c1cccc(-c2ccc(Cl)c(S(=O)(=O)Nc3cccc(NC(=O)Nc4cccc(N(C)C)c4)c3)c2)c1 [Example 118] | 11 | 36 | 71 |  |  |  |  |  |  | Response (%) OX1R (human OX1R; [1]): 9%; Response (%) OX1R (human OX1R; [2]): 8%; Response (%) OX1R (human OX1R; [3]): 9%
COc1ccc(-c2cccc(C(=O)N(C)C)c2)cc1S(=O)(=O)Nc1cccc(NC(=O)Nc2cccc(C)c2)c1 [Example 38] |  |  |  | 68 | 82 | 71 | <5 | <5 | <5 | 
COc1ccc(-c2cccc(C(=O)N(C)C)c2)cc1S(=O)(=O)Nc1cccc(NCC(=O)NCc2cccc(C)c2)c1 [Example 92, 4′-methoxy-N,N-dimethyl-3′-(N-(3-((2-((3-methylbenzyl)amino)-2-oxoethyl)amino)phenyl)sulfamoyl)-[1,1′-biphenyl]-3-carboxamide] | 35 | 95 | 95 |  |  |  |  |  |  | Emax at 0.1 µM (human OX1R; [1]): < 5%; Emax at 1 µM (human OX1R; [2]): 6%; Emax at 10 µM (human OX1R; [3]): 30%
COc1ccc(-c2cccc(C(=O)N(C)C)c2)cc1S(=O)(=O)Nc1cccc(NC(=O)c2ccc(C)cc2)c1 [Example 17] |  |  |  | <5 | 9 | 41 | <5 | <5 | 13 | 
COc1ccc(-c2cccc(C(=O)N(C)C)c2)cc1S(=O)(=O)Nc1cccc(N2CCN(C(=O)c3cccc(C)c3)C2)c1 [Example 93, 4′-methoxy-N,N-dimethyl-3′-(N-(3-(3-(3-methylbenzoyl)imidazolidin-1-yl)phenyl)sulfamoyl)-[1,1′-biphenyl]-3-carboxamide] | 16 | 77 | 85 |  |  |  |  |  |  | Emax at 0.1 µM (human OX1R; [1]): 10%; Emax at 1 µM (human OX1R; [2]): 9%; Emax at 10 µM (human OX1R; [3]): 20%
COc1ccc(-c2cccc(C(=O)N(C)C)c2)cc1S(=O)(=O)Nc1cccc(Nc2c(OC)c(=O)c2=O)c1 [Example 79, 4′-methoxy-3′-(N-(3-((2-methoxy-3,4-dioxocyclobut-1-en-1-yl)amino)phenyl)sulfamoyl)-N,N-dimethyl-[1,1′-biphenyl]-3-carboxamide] |  |  |  | <5 | <5 | 51 |  |  |  | Emax at 0.1 µM (human OX1R; [4]): < 5%; Emax at 1 µM (human OX1R; [5]): < 5%; Emax at 10 µM (human OX1R; [6]): < 5%
COc1ccc(-c2cccc(C(=O)N(C)C)c2)cc1S(=O)(=O)Nc1cccc(NC(=O)Nc2ccc(NC(=O)OC(C)(C)C)cc2)c1 [Example 72] |  |  |  | 7 | 59 | 79 | <5 | <5 | <5 | 
COc1ccc(-c2cccc(C(=O)N(C)C)c2)cc1S(=O)(=O)Nc1cccc(NC(=O)c2cccc3ccccc23)c1 [Example 10] |  |  |  | 14 | 80 | 98 | 5 | 6 | 11 | 
COc1ccc(-c2cccc(C(=O)N(C)C)c2)cc1S(=O)(=O)Nc1cccc(N2CCN(c3ccccc3N(C)C)C2=O)c1 [Example 129] | 85 | 93 | 92 |  |  |  |  |  |  | Response (%) OX1R (human OX1R; [1]): <5%; Response (%) OX1R (human OX1R; [2]): 41%; Response (%) OX1R (human OX1R; [3]): 81%
COc1ccc(-c2cccc(C(=O)N(C)C)c2)cc1S(=O)(=O)Nc1cccc(Nc2ccccc2)c1 [Example 30, 4′-methoxy-N,N-dimethyl-3′-(N-(3-(phenylamino)phenyl)sulfamoyl)-[1,1′-biphenyl]-3-carboxamide] |  |  |  | <5 | <5 | 39 |  |  |  | Emax at 0.1 µM (human OX1R): < 5%; Emax at 1 µM (human OX1R): < 5%; Emax at 10 µM (human OX1R): < 5%
COc1ccc(-c2cccc(C(=O)N(C)C)c2)cc1S(=O)(=O)Nc1cccc(Nc2cccc(C(F)(F)F)c2)c1 [Example 35] |  |  |  | <5 | 35 | 63 | <5 | <5 | <5 | 
CCCOc1ccc(-c2cccc(C(=O)N(C)C)c2)cc1S(=O)(=O)Nc1cccc(NC(=O)Nc2cccc(N(C)C)c2)c1 [Example 120] | 29 | 84 | 103 |  |  |  |  |  |  | Response (%) OX1R (human OX1R; [1]): <5%; Response (%) OX1R (human OX1R; [2]): <5%; Response (%) OX1R (human OX1R; [3]): <5%
